Measured values taken from the supplement of paper PMC11061612.

What was measured:
Assay in all cases: combination Emax (second highest fraction inhibited in the dose matrix, 72 h); higher = more inhibition; extreme values may be limits of the assay
U251 (Low Grade Glioma) = system: U251 (Low Grade Glioma)
Outline: (§1)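 After 24 hours at 37°C and 5% CO2 in 1536-well plates, cells in DMEM/F12 or RPMI plus 10% FBS received two-drug dose matrices for 72 hours. Viability came from CellTiter-Glo 2.0 luminescence and was scaled as inhibition, anchored at 0 by vehicle wells and at 1 by blank wells. Combination Emax is taken as the second-highest inhibition in the matrix, and Bliss excess as the observed combination effect less EA + EB − EA·EB, with EA and EB the single-agent effects.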

[1] = system: KCL-22 (Chronic Myelogenous Leukemia)
Outline: as §1

WM-115 (Melanoma) = system: WM-115 (Melanoma)
Outline: as §1

[2] = system: CAMA-1 (Breast Carcinoma)
Outline: as §1

[3] = system: MS751 (Cervical Carcinoma)
Outline: as §1

[4] = system: NCI-H847 (Small Cell Lung Carcinoma)
Outline: as §1

[5] = system: KYSE-180 (Esophageal Squamous Cell Carcinoma)
Outline: as §1

[6] = system: COLO-678 (Colorectal Carcinoma)
Outline: as §1

MEL-JUSO (Melanoma) = system: MEL-JUSO (Melanoma)
Outline: as §1

[7] = system: PANC-08-13 (Pancreatic Carcinoma)
Outline: as §1

[8] = system: BL-41 (Burkitt's Lymphoma)
Outline: as §1

[9] = system: DND-41 (T-Lymphoblastic Leukemia)
Outline: as §1

NCI-H2818 (Mesothelioma) = system: NCI-H2818 (Mesothelioma)
Outline: as §1

TC-71 (Ewing's Sarcoma) = system: TC-71 (Ewing's Sarcoma)
Outline: as §1

[10] = system: NCI-H1792 (Lung Adenocarcinoma)
Outline: as §1

[11] = system: SW837 (Colorectal Carcinoma)
Outline: as §1

[12] = system: EVSA-T (Breast Carcinoma)
Outline: as §1

[13] = system: BFTC-905 (Bladder Carcinoma)
Outline: as §1

[14] = system: MKN28 (Gastric Carcinoma)
Outline: as §1

LN-18 (Glioblastoma) = system: LN-18 (Glioblastoma)
Outline: as §1

Compound | combination Emax (U251 (Low Grade Glioma)) | combination Emax [1] | combination Emax (WM-115 (Melanoma)) | combination Emax [2] | combination Emax [3] | combination Emax [4] | combination Emax [5] | combination Emax [6] | combination Emax (MEL-JUSO (Melanoma)) | combination Emax [7] | combination Emax [8] | combination Emax [9] | combination Emax (NCI-H2818 (Mesothelioma)) | combination Emax (TC-71 (Ewing's Sarcoma)) | combination Emax [10] | combination Emax [11] | combination Emax [12] | combination Emax [13] | combination Emax [14] | combination Emax (LN-18 (Glioblastoma))
CN(CCO)CC[C@H](CSc1ccccc1)Nc1ccc(S(=O)(=O)NC(=O)c2ccc(N3CCC([C@@H](O)c4ccccc4-c4ccc(Cl)cc4)CC3)cc2)cc1S(=O)(=O)C(F)(F)F [AZD4320] + Cc1cc2ncnn2cc1Nc1ncc2c(n1)n(C1CCOCC1)c(=O)n2C [AZD7648] (first compound max 1 µM, 7x7, partner max 10 µM) | 0.118 | 0.462 | 0.489 | 0.229 | 0.146 | 1 | 0.0754 | 0.105 | 0.181 | 0.391 | 0.203 | 1 | 0.364 | 0.593 | 0.287 | 0.201 | 0.191 | 0.117 | 0.153 | 0.204
CCN(CCO)CCCOc1ccc2c(Nc3cc(CC(=O)Nc4cccc(F)c4)[nH]n3)ncnc2c1 [AZD2811] + C[C@@H]1COCCN1C2=NC(=NC(=C2)C3(CC3)[S@](=N)(=O)C)C4=C5C=CNC5=NC=C4 [AZD6738] (first compound max 1 µM, 7x7, partner max 10 µM) | 0.533 | 0.986 | 0.523 | 0.304 | 0.492 | 1 | 0.823 | 0.165 | 0.357 | 0.36 | 1 | 0.908 | 0.405 | 0.94 | 0.655 | 0.361 | 0.289 | 0.838 | 0.519 | 0.585
CN(C)CCCOc1ccc(-c2ccc3ncc4c(c3c2)n(C2CCOCC2)c(=O)n4C)cn1 [AZD0156] + C[C@@H]1COCCN1C2=NC(=NC(=C2)C3(CC3)[S@](=N)(=O)C)C4=C5C=CNC5=NC=C4 [AZD6738] (first compound max 1 µM, 7x7, partner max 10 µM) | 0.584 | 0.978 | 0.488 | 0.273 | 0.271 | 0.956 | 0.915 | 0.123 | 0.525 | 0.373 | 1 | 0.844 | 0.324 | 0.952 | 0.707 | 0.466 | 0.495 | 0.891 | 0.471 | 0.725
CN(CCO)CC[C@H](CSc1ccccc1)Nc1ccc(S(=O)(=O)NC(=O)c2ccc(N3CCC([C@@H](O)c4ccccc4-c4ccc(Cl)cc4)CC3)cc2)cc1S(=O)(=O)C(F)(F)F [AZD4320] + Cn1cnc2c(F)c(Nc3ccc(Br)cc3Cl)c(C(=O)NOCCO)cc21 [Selumetinib] (first compound max 1 µM, 7x7, partner max 3 µM) | 0.651 | 0.557 | 0.878 | 0.468 | 0.413 | 1 | 0.19 | 0.604 | 0.432 | 0.528 | 0.801 | 1 | 0.31 | 0.985 | 0.369 | 0.489 | 0.506 | 0.825 | 0.356 | 0.329
Cc1c2c(nn1C)CSCc1cc(n(C)n1)CSc1cc(c3ccccc3c1)OCCCc1c(C(=O)O)n(C)c3c-2c(Cl)ccc13 [AZD5991] + C[C@@H]1COCCN1C2=NC(=NC(=C2)C3(CC3)[S@](=N)(=O)C)C4=C5C=CNC5=NC=C4 [AZD6738] (first compound max 1 µM, 7x7, partner max 10 µM) | 0.648 | 0.997 | 0.471 | 0.751 | 0.901 | 0.994 | 0.979 | 0.241 | 0.684 | 0.419 | 1 | 0.9 | 0.496 | 0.987 | 0.731 | 0.354 | 1 | 0.862 | 0.405 | 0.842
Cc1c2c(nn1C)CSCc1cc(n(C)n1)CSc1cc(c3ccccc3c1)OCCCc1c(C(=O)O)n(C)c3c-2c(Cl)ccc13 [AZD5991] + C1CN(CCC1(C(=O)N[C@@H](CCO)C2=CC=C(C=C2)Cl)N)C3=NC=NC4=C3C=CN4 [Capivasertib] (first compound max 1 µM, 7x7, partner max 3 µM) | 0.224 | 0.981 | 0.584 | 0.994 | 0.855 | 0.78 | 0.922 | 0.194 | 0.346 | 0.15 | 1 | 0.111 | 0.258 | 0.47 | 0.302 | 0.121 | 1 | 0.206 | 0.12 | 0.409
